From ChEMBL document CHEMBL1201862, “PubChem BioAssay data set” (2004)
Active and inactive are the calls of the source.

Columns and labels:
cells [1] = conditions: HEK293
[2] = viability loss in HepG2 liver cells – cell-based, ATP luminescence, cherry-pick, set 6, cytotoxicity control, dose response (AID 1053125); format: functional
cells [3] = conditions: A549
[4] = A Cell-Based Confirmatory Screen for Compounds that Inhibit VEEV, TC-83 (5).; format: functional
[5] = A Cell-Based Confirmatory Screen for Compounds that Inhibit VEEV, TC-83 (8).; format: functional
[6] = A Cell-Based Confirmatory Screen for Compounds that Inhibit VEEV TC-83 (4).; format: functional
[7] = molecular target: Metabotropic glutamate receptor 3 (Rattus norvegicus, UniProt P31422); assay: inhibition of rat mGlu3 glutamate signaling – HEK/GIRK cells, thallium flux, dose response (AID 651839); format: functional
[8] = molecular target: T1, Oxysterols receptor LXR-beta (Homo sapiens, UniProt P55055); format: functional, cell-based;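 also: agonist activity at LXR measured by a cell-based luminescence readout across a dose range, run as a counterscreen for daf-12 agonists; HEK293 cells with Gal4-LXR fusion and GAL4-driven luciferase reporter; potency for activation of Gal4-LXR reporter so compounds are agonists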
T1 sequence (P55055 whole entry): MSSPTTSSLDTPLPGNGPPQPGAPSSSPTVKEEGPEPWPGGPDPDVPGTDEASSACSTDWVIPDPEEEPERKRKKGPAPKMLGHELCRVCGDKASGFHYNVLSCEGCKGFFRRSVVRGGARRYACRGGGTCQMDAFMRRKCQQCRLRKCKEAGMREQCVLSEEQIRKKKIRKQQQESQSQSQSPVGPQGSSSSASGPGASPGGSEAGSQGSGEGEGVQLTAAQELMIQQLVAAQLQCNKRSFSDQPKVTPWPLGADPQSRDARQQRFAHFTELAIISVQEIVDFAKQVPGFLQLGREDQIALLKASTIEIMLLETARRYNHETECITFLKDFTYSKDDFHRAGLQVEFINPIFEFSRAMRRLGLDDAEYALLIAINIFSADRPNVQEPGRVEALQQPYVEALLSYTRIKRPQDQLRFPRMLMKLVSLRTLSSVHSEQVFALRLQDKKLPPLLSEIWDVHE

[9] = Dd2 parasite growth inhibition in erythrocytes – SYBR Green, dry powder samples, set 4, dose response (AID 1159572); format: functional, cell-based
[10] = Dd2 malaria parasite growth inhibition potency – SYBR Green, dry powder samples, dose response (AID 1159566); format: functional, cell-based;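 also: potency for growth inhibition with lower SYBR green DNA signal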
[11] = growth inhibition of yeast DHODH-expressing 3D7 parasites – SYBR Green, dry powder samples, dose response (AID 1159570); format: functional, cell-based;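 also: parasite growth measured after 72 hours of compound exposure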
[12] = toxicity to human HepG2 hepatoma cells – cell-based, plate reader, dry powder samples, cytotoxicity control, dose response (AID 1159569); format: functional;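 also: inhibitor potency with signal falling toward the positive control level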
[13] = P. falciparum Dd2 growth inhibitors, dose response, SYBR Green, cherry-picked samples (AID 1159567); format: functional, cell-based
[14] = growth inhibition of PfATP4-mutant resistant parasites – NITD609-resistant line, SYBR Green, dry powder, dose response (AID 1159571); format: functional, cell-based;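 also: parasites synchronized at ring stage by sorbitol before testing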
[15] = toxicity to human hepatoma HepG2 cells – cell-based, cherry-picked samples, cytotoxicity control, dose response (AID 1159577); format: functional
cells [16] = conditions: HEK293; remark: listed apart in the source
[17] = toxicity to A549 lung cells – cell-based, plate reader, dry powder, set 6, cytotoxicity control, dose response (AID 743312); format: functional
[18] = toxicity to HepG2 liver cells – cell-based, plate reader, dry powder, set 6, cytotoxicity control, dose response (AID 743311); format: functional
[19] = SNU-C1 cell viability reduction, dose response, CellTiter-Glo luminescence (AID 1117323); format: functional, cell-based
[20] = cytotoxicity toward Colo320 cells – cell-based, CellTiter-Glo luminescence, IC50, dose response (AID 1117334); format: functional; conditions: COLO 320
[21] = rise of 4N DNA cells, HeLa – IC50, dose response (AID 1117351); format: functional, cell-based
[22] = cytotoxicity toward HT-29 cells – cell-based, CellTiter-Glo luminescence, IC50, dose response (AID 1117330); format: functional
[23] = CellTiter-Glo luminescence survival assay, SW480 colon tumor line, concentration-response curve, half-maximal inhibitory concentration (AID 1117338); format: functional
[24] = RKO cell viability reduction, dose response, CellTiter-Glo luminescence (AID 1117322); format: functional
[25] = cytotoxicity toward HCT116 cells – cell-based, CellTiter-Glo luminescence, IC50, dose response (AID 1117332); format: functional; conditions: HCT-116
[26] = Reduced DLD-1 viability, concentration-response, CellTiter-Glo luminescence (AID 1117352); format: functional
[27] = rise of 2N DNA cells, HeLa – IC50, dose response (AID 1117349); format: functional, cell-based

Metabotropic glutamate receptor 3, sequence (P31422 whole entry, the tested form may be a part): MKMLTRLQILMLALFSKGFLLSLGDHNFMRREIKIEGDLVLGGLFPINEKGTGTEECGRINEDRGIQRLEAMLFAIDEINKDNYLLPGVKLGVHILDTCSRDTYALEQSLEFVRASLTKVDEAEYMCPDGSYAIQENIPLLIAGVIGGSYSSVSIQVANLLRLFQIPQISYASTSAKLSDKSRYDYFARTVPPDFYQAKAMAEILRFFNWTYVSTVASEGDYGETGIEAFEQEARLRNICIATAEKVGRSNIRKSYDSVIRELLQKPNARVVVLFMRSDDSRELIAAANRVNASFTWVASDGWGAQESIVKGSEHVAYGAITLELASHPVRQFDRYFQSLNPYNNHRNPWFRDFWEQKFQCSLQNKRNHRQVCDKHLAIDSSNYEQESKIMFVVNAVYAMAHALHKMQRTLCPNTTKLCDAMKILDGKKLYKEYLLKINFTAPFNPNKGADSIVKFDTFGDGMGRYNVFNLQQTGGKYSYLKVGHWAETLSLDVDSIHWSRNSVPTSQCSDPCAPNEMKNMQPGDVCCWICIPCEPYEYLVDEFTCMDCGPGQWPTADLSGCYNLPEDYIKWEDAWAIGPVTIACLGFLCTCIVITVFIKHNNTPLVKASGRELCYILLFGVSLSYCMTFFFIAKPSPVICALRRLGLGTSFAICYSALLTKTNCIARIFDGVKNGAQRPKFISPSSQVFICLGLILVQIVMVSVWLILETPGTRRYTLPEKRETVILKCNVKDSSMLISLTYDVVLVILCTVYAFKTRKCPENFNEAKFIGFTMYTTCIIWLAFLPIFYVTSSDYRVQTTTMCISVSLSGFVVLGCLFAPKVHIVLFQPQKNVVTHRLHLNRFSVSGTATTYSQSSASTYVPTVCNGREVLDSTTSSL

O=c1oc2cc(O)ccc2cc1-c1nc2ccccc2o1
AC50 (cells [1]): 26.6 µM (active) | AC50 [2]: > 52 µM (inactive) | AC50 (cells [3]): > 52 µM (inactive)

O=c1c2cc([N+](=O)[O-])ccc2nc(CN2CCNCC2)n1-c1ccccc1F
IC50 [4]: < 0.23 µM (active) | IC50 [5]: < 0.198 µM (active) | IC50 [6]: 0.073 µM (active)

COc1ccc(OC)c(-c2ccc3cc(C(=O)N4CCCC(CO)C4)ccc3c2)c1 (stereo not drawn)
IC50 [7]: 9.16 µM (active)

Nc1ncc(Br)cc1/N=C/c1ccccc1
EC50 [8]: > 67.5 µM (inactive)

CCCNC(=O)N1CCC2(CC1)CN(C(C)=O)[C@@H](CO)c1[nH]c3cc(OC)ccc3c12
AC50 [9]: 9.51 µM (active)

COc1ccc(C#Cc2ccc3c(c2)[C@@H]2[C@@H](CCN2C(=O)C2CCCC2)[C@@H](CO)N3)cc1
AC50 [10]: 1.09 µM (active) | AC50 [11]: 1.31 µM (active) | AC50 [12]: > 100 µM (inactive) | AC50 [13]: 2.82 µM (active) | AC50 [14]: 1.1 µM (active)

Cc1cccc(S(=O)(=O)N2CCCCN3[C@@H](CO)[C@@H](c4ccc(C#CC5CC5)cc4)[C@@H]3C2)c1
AC50 [13]: 1.3 µM (active) | AC50 [15]: 14.4 µM (active)

CC(C)c1ccccc1OCCn1c(=S)[nH]c2ccccc21
AC50 (cells [16]): 27.6 µM (active) | AC50 [17]: 21.1 µM (active) | AC50 [18]: 32.9 µM (active)

O=c1c(-c2ccccc2)c1-c1ccccc1 [DIPHENCYPRONE]
IC50 [19]: > 20 µM (inactive) | IC50 [20]: 3.1 µM (active) | IC50 [21]: > 10 µM (inactive) | IC50 [22]: > 20 µM (inactive) | IC50 [23]: > 20 µM (inactive) | IC50 [24]: > 20 µM (inactive) | IC50 [25]: > 20 µM (inactive) | IC50 [26]: 4.21 µM (active) | IC50 [27]: > 10 µM (inactive)
